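Cells were grown in 96-well plates and exposed to each compound for 48 hours at five concentrations; endpoints were interpolated linearly between bracketing concentrations, or set to the highest concentration if not reached. GI50 marks 50% less growth.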 Calls of active or inactive are those of the source. Cut-off read from the data, not from the text of the source: active = GI50 up to about 1.1 µM and inactive = higher.
Tests used:
Experiment in all cases: NCI-60 cell line screen, 48 h
IGROV-1 = test system: IGROV-1
KM12 = test system: KM12
SK-OV-3 = test system: SK-OV-3
SK-MEL-2 = test system: SK-MEL-2
OVCAR-3 = test system: OVCAR-3
NCI-H460 = test system: NCI-H460
UO-31 = test system: UO-31
HCT-116 = test system: HCT-116
NCI-H226 = test system: NCI-H226
HL-60 = test system: HL-60
T47D = test system: T47D
SN12C = test system: SN12C
SNB-19 = test system: SNB-19
TK-10 = test system: TK-10
UACC-257 = test system: UACC-257
HOP-62 = test system: HOP-62
DU-145 = test system: DU-145
U-251 = test system: U-251
MDA-MB-231 = test system: MDA-MB-231
PC-3 = test system: PC-3
RXF 393 = test system: RXF 393
OVCAR-4 = test system: OVCAR-4
MDA-N = test system: MDA-N
OVCAR-5 = test system: OVCAR-5
CCRF-CEM = test system: CCRF-CEM
CAKI-1 = test system: CAKI-1
COLO 205 = test system: COLO 205
SNB-75 = test system: SNB-75
LOX IMVI = test system: LOX IMVI
ACHN = test system: ACHN
MOLT-4 = test system: MOLT-4
786-0 = test system: 786-0
BT-549 = test system: BT-549
UACC-62 = test system: UACC-62
M14 = test system: M14
SF-268 = test system: SF-268
SW-620 = test system: SW-620
Malme-3M = test system: Malme-3M
SF-539 = test system: SF-539
MCF7 = test system: MCF7
SF-295 = test system: SF-295
NCI-H522 = test system: NCI-H522
Hs-578T = test system: Hs-578T
HCT-15 = test system: HCT-15
SK-MEL-5 = test system: SK-MEL-5
MDA-MB-435 = test system: MDA-MB-435
NCI-H23 = test system: NCI-H23
K562 = test system: K562
A549 = test system: A549
EKVX = test system: EKVX
OVCAR-8 = test system: OVCAR-8
SK-MEL-28 = test system: SK-MEL-28
HOP-92 = test system: HOP-92
SR = test system: SR
NCI/ADR-RES = test system: NCI/ADR-RES
RPMI-8226 = test system: RPMI-8226
HCC 2998 = test system: HCC 2998
A498 = test system: A498
HT-29 = test system: HT-29

SMILES: CCOP(=O)(C[S+](C)[O-])O[C@@H]1C[C@H](C)CC[C@H]1C(C)C (stereo partly specified)
- GI50 (IGROV-1): 3.25 µM (inactive)
- GI50 (KM12): 3.14 µM (inactive)
- GI50 (SK-OV-3): 6.95 µM (inactive)
- GI50 (SK-MEL-2): 4.47 µM (inactive)
- GI50 (OVCAR-3): 4.44 µM (inactive)
- GI50 (NCI-H460): 4.5 µM (inactive)
- GI50 (UO-31): 1.17 µM (inactive)
- GI50 (HCT-116): 2.75 µM (inactive)
- GI50 (NCI-H226): 3.92 µM (inactive)
- GI50 (HL-60): 3.48 µM (inactive)
- GI50 (T47D): 4.6 µM (inactive)
- GI50 (SN12C): 0.434 µM (active)
- GI50 (SNB-19): 12.2 µM (inactive)
- GI50 (TK-10): 3.63 µM (inactive)
- GI50 (UACC-257): 6.4 µM (inactive)
- GI50 (HOP-62): 5.53 µM (inactive)
- GI50 (DU-145): 6.37 µM (inactive)
- GI50 (U-251): 4.59 µM (inactive)
- GI50 (MDA-MB-231): 3.03 µM (inactive)
- GI50 (PC-3): 6.61 µM (inactive)
- GI50 (RXF 393): 2.59 µM (inactive)
- GI50 (OVCAR-4): 15 µM (inactive)
- GI50 (MDA-N): 2.86 µM (inactive)
- GI50 (OVCAR-5): 4.28 µM (inactive)
- GI50 (CCRF-CEM): 2.43 µM (inactive)
- GI50 (CAKI-1): 2.88 µM (inactive)
- GI50 (COLO 205): 6.19 µM (inactive)
- GI50 (SNB-75): 7.28 µM (inactive)
- GI50 (LOX IMVI): 1.77 µM (inactive)
- GI50 (ACHN): 4.43 µM (inactive)
- GI50 (MOLT-4): 5.18 µM (inactive)
- GI50 (786-0): 2.73 µM (inactive)
- GI50 (BT-549): 5.25 µM (inactive)
- GI50 (UACC-62): 2.17 µM (inactive)
- GI50 (M14): 8.3 µM (inactive)
- GI50 (SF-268): 6.44 µM (inactive)
- GI50 (SW-620): 3.72 µM (inactive)
- GI50 (Malme-3M): 11 µM (inactive)
- GI50 (SF-539): 12.2 µM (inactive)
- GI50 (MCF7): 3.08 µM (inactive)
- GI50 (SF-295): 5.6 µM (inactive)
- GI50 (NCI-H522): 2.26 µM (inactive)
- GI50 (Hs-578T): 3.26 µM (inactive)
- GI50 (HCT-15): 2.71 µM
- GI50 (SK-MEL-5): 2.25 µM (inactive)
- GI50 (MDA-MB-435): 3.21 µM (inactive)
- GI50 (NCI-H23): 4.13 µM (inactive)
- GI50 (K562): 3.4 µM (inactive)
- GI50 (A549): 4.85 µM (inactive)
- GI50 (EKVX): 3.33 µM (inactive)
- GI50 (OVCAR-8): 4.48 µM (inactive)
- GI50 (SK-MEL-28): > 100 µM (inactive)
- GI50 (HOP-92): 3.97 µM (inactive)
- GI50 (SR): 3.07 µM (inactive)
- GI50 (NCI/ADR-RES): 7.29 µM (inactive)
- GI50 (RPMI-8226): 1.85 µM (inactive)

SMILES: COc1cc(C2SCC(=O)N2c2ccc(NC(C)=O)cc2)cc(OC)c1OC (stereo unspecified)
- GI50 (IGROV-1): > 100 µM (inactive)
- GI50 (KM12): > 100 µM (inactive)
- GI50 (SK-OV-3): > 100 µM (inactive)
- GI50 (SK-MEL-2): > 100 µM (inactive)
- GI50 (OVCAR-3): > 100 µM (inactive)
- GI50 (NCI-H460): > 100 µM (inactive)
- GI50 (UO-31): > 100 µM (inactive)
- GI50 (HCT-116): 69.7 µM (inactive)
- GI50 (NCI-H226): > 100 µM (inactive)
- GI50 (HL-60): > 100 µM (inactive)
- GI50 (T47D): 16.6 µM (inactive)
- GI50 (SN12C): 81.5 µM (inactive)
- GI50 (SNB-19): > 100 µM (inactive)
- GI50 (TK-10): > 100 µM (inactive)
- GI50 (UACC-257): > 100 µM (inactive)
- GI50 (DU-145): > 100 µM (inactive)
- GI50 (U-251): > 100 µM (inactive)
- GI50 (MDA-MB-231): > 100 µM (inactive)
- GI50 (PC-3): > 100 µM (inactive)
- GI50 (OVCAR-4): > 100 µM (inactive)
- GI50 (MDA-N): 33.8 µM (inactive)
- GI50 (OVCAR-5): > 100 µM (inactive)
- GI50 (CCRF-CEM): 25.9 µM (inactive)
- GI50 (CAKI-1): 65.2 µM (inactive)
- GI50 (COLO 205): > 100 µM (inactive)
- GI50 (HCC 2998): > 100 µM (inactive)
- GI50 (A498): > 100 µM (inactive)
- GI50 (LOX IMVI): > 100 µM (inactive)
- GI50 (ACHN): > 100 µM (inactive)
- GI50 (MOLT-4): 50.9 µM (inactive)
- GI50 (786-0): > 100 µM (inactive)
- GI50 (BT-549): 36.6 µM (inactive)
- GI50 (UACC-62): 25.5 µM (inactive)
- GI50 (M14): > 100 µM (inactive)
- GI50 (SF-268): > 100 µM (inactive)
- GI50 (SW-620): > 100 µM (inactive)
- GI50 (SF-539): > 100 µM (inactive)
- GI50 (MCF7): 51.3 µM (inactive)
- GI50 (SF-295): > 100 µM (inactive)
- GI50 (NCI-H522): 71.4 µM (inactive)
- GI50 (Hs-578T): > 100 µM (inactive)
- GI50 (HCT-15): 94.2 µM
- GI50 (SK-MEL-5): > 100 µM (inactive)
- GI50 (MDA-MB-435): 52.7 µM (inactive)
- GI50 (NCI-H23): > 100 µM (inactive)
- GI50 (K562): > 100 µM (inactive)
- GI50 (A549): > 100 µM (inactive)
- GI50 (EKVX): > 100 µM (inactive)
- GI50 (OVCAR-8): 77.1 µM (inactive)
- GI50 (SK-MEL-28): > 100 µM (inactive)
- GI50 (HOP-92): 48.3 µM (inactive)
- GI50 (SR): 31.2 µM (inactive)
- GI50 (HT-29): 90.4 µM (inactive)
- GI50 (NCI/ADR-RES): 88.3 µM (inactive)
- GI50 (RPMI-8226): > 100 µM (inactive)

From ChEMBL document CHEMBL1201862, “PubChem BioAssay data set” (2004)
